The results in this text go back to ChEMBL document CHEMBL3046352, “Synthesis, anti-HSV-1, and cytotoxic activities of some new pyrazole- and isoxazole-based heterocycles” (Med Chem Res, 2011).

In data set [1] the test system is Human alphaherpesvirus 1. In words: Antiviral activity against Human herpesvirus 1 infected Vero cells after 66 hr. The class given is functional.
Data set [2] can be described thus: Cytotoxicity against Chlorocebus aethiops (African green monkey) Vero cells assessed as concentration required for 50% loss of monolayer around viral plaque after 66 hr. The class given is cell-based. The following applies: chlorocebus sabaeus, read-out: Activity.
Data set [3] concerns Human alphaherpesvirus 1. The experiment in a line: Antiviral activity against Human herpesvirus 1 infected Vero cells assessed as reduction in viral plaque after 66 hr relative to control. Format: functional. The arrangement: concentration or dose not given beside the values.

≈ marks a conversion by molar mass, not a printed value. Calls of active or inactive are those of the source. The rule behind the calls is not given here.

With `CC(=N/NC(=O)c1cc(-c2ccc(Cl)cc2)on1)/C(Cl)=N\Nc1ccc(F)cc1`, in the data set on Human alphaherpesvirus 1 [1], the MAC is 0.1 mg/mL. The CC50 at 66 h in data set [2] was 20 µg/mL (≈ 46.1 µM). For the same compound, the Activity with Human alphaherpesvirus 1 [3] turned out to be 51%.
As for `O=C(N/N=C1/S/C(=C\c2ccc(F)cc2)C(=O)N1c1ccccc1)c1cc(-c2ccc(Cl)cc2)n(-c2ccccc2)n1`, the CC50 at 66 h in data set [2] stood at 30 µg/mL (≈ 50.5 µM). Moreover, the outcome in the data set with Human alphaherpesvirus 1 [3] was inactive.
With `Clc1ccc(-c2cc(-c3nnc(Nc4ccccc4)s3)no2)cc1`, in data set [2], the CC50 at 66 h amounted to 20 µg/mL (≈ 56.4 µM). Also, the outcome in the data set on Human alphaherpesvirus 1 [3] was inactive.
The matching figures for `CC1=NN(C(=O)c2cc(-c3ccc(Cl)cc3)n(-c3ccccc3)n2)C(=O)/C1=N/Nc1ccc(F)cc1`: 20 µg/mL (≈ 39.9 µM) and “inactive”.
For `NNC(=O)c1cc(-c2ccc(Cl)cc2)n(-c2ccccc2)n1`, the MAC with Human alphaherpesvirus 1 [1] turned out to be 0.1 mg/mL. The CC50 at 66 h in data set [2] is 20 µg/mL (≈ 63.9 µM). Besides, in the data set with Human alphaherpesvirus 1 [3], the Activity is reported as 65%.
As to `CC1=NN(C(=O)c2cc(-c3ccc(Cl)cc3)on2)C(=O)/C1=N/Nc1ccc(F)cc1`, in data set [2], the CC50 at 66 h is 20 µg/mL (≈ 47 µM). In the data set on Human alphaherpesvirus 1 [3], the result was inactive.
With `O=C(N/N=c1\scc(-c2ccc(Cl)cc2)n1-c1ccccc1)c1cc(-c2ccc(Cl)cc2)on1`, in data set [2], the CC50 at 66 h was found to be 20 µg/mL (≈ 39.4 µM). Besides, in the data set on Human alphaherpesvirus 1 [3], the outcome was inactive.
The matching figures for `O=C(N/N=C/c1ccc(F)cc1)c1cc(-c2ccc(Cl)cc2)on1`: 10 µg/mL (≈ 29.1 µM) and 56%.
`C[C@@]1(CO)[C@H](O)CC[C@@]2(C)[C@H]1CC[C@H]1C[C@@H]3C[C@@]12CC[C@]3(O)CO` [APHIDICOLIN]: the MAC in the data set with Human alphaherpesvirus 1 [1] was 0.005 mg/mL. Moreover, the CC50 at 66 h in data set [2] came to 10 µg/mL (≈ 29.5 µM). Further, the Activity in the data set on Human alphaherpesvirus 1 [3] was found to be 100%.
On to `O=C(N/N=c1\scc(-c2ccc(Cl)cc2)n1-c1ccccc1)c1cc(-c2ccc(Cl)cc2)n(-c2ccccc2)n1`, for which the CC50 at 66 h in data set [2] turned out to be 20 µg/mL (≈ 34.3 µM). Further, the result with Human alphaherpesvirus 1 [3] was inactive.
Taken in the same sequence, the figures for `O=C(NNC(=S)Nc1ccccc1)c1cc(-c2ccc(Cl)cc2)n(-c2ccccc2)n1` were 20 µg/mL (≈ 44.6 µM) and “inactive”.
The matching figures for `Clc1ccc(-c2cc(-c3nnc(Nc4ccccc4)s3)nn2-c2ccccc2)cc1`: 30 µg/mL (≈ 69.8 µM) and “inactive”.
`O=C(NN1C(=O)c2ccccc2C1=O)c1cc(-c2ccc(Cl)cc2)on1` had an MAC with Human alphaherpesvirus 1 [1] of 0.1 mg/mL. The CC50 at 66 h in data set [2] came to 10 µg/mL (≈ 27.2 µM). The result in the data set with Human alphaherpesvirus 1 [3] was inactive.
As for `CC(=N/NC(=O)c1cc(-c2ccc(Cl)cc2)n(-c2ccccc2)n1)/C(Cl)=N\Nc1ccc(F)cc1`, the MAC with Human alphaherpesvirus 1 [1] came out at 0.1 mg/mL. In addition, the CC50 at 66 h in data set [2] was determined as 20 µg/mL (≈ 39.3 µM). Besides, the Activity with Human alphaherpesvirus 1 [3] was determined as 69%.
Taken in the same sequence, the figures for `O=C(NNC(=S)Nc1ccccc1)c1cc(-c2ccc(Cl)cc2)on1` were 0.1 mg/mL, 20 µg/mL (≈ 53.6 µM) and 19%.
Taken in the same sequence, the figures for `NNC(=O)c1cc(-c2ccc(Cl)cc2)on1` were 0.1 mg/mL, 10 µg/mL (≈ 42.1 µM) and 43%.
`O=C(N/N=C1/S/C(=C\c2ccc(F)cc2)C(=O)N1c1ccccc1)c1cc(-c2ccc(Cl)cc2)on1`: the CC50 at 66 h in data set [2] came out at 20 µg/mL (≈ 38.5 µM). The result with Human alphaherpesvirus 1 [3] was inactive.
In the case of `O=C(N/N=C/c1ccc(F)cc1)c1cc(-c2ccc(Cl)cc2)n(-c2ccccc2)n1`, the MAC in the data set with Human alphaherpesvirus 1 [1] was 0.1 mg/mL. Further, in data set [2], the CC50 at 66 h came out at 20 µg/mL (≈ 47.7 µM). Moreover, the Activity in the data set with Human alphaherpesvirus 1 [3] is 67%.
